Values after ≈ are worked out from the molar mass of the structure shown.
Columns and labels:
Lu1 = assay: Cytotoxicity against human Lu1 cells after 72 hrs by SRB assay; type: functional; settings: Lu1, 72 h, read-out: ED50 (the source's name)
[1] = Cytotoxicity against human BC1 cells after 72 hrs by SRB assay; type: functional; settings: BC1, 72 h, read-out: ED50 (the source's name)
[2] = Cytotoxicity against human KB3 cells after 72 hrs by SRB assay; type: functional; settings: KB3, 72 h, read-out: ED50 (the source's name)
[3] = Cytotoxicity against human U373 cells after 72 hrs by SRB assay; type: functional, U-373MG ATCC; settings: U373 MG, read-out: ED50 (the source's name)
A-431 = assay: Cytotoxicity against human A431 cells after 72 hrs by SRB assay; type: functional; settings: A-431, 72 h, read-out: ED50 (the source's name)
[4] = Cytotoxicity against human multidrug resistant KBV1 cells in presence of vinblastine; type: functional; settings: KB-V1, read-out: ED50 (the source's name)
ZR-75-1 = assay: Cytotoxicity against human ZR-75-1 cells after 72 hrs by SRB assay; type: functional; settings: ZR-75-1, 72 h, read-out: ED50 (the source's name)
SK-MEL-2 = assay: Cytotoxicity against human SK-MEL-2 cells after 72 hrs by SRB assay; type: functional; settings: SK-MEL-2, 72 h, read-out: ED50 (the source's name)
HT = assay: Cytotoxicity against human HT cells after 72 hrs by SRB assay; type: functional; settings: read-out: ED50 (the source's name)
Col2 = assay: Cytotoxicity against human Col2 cells after 72 hrs by SRB assay; type: functional; settings: Col2, 72 h, read-out: ED50 (the source's name)
P388 = assay: Cytotoxicity against mouse P388 cells after 72 hrs by SRB assay; type: functional; settings: P388, 72 h, read-out: ED50 (the source's name)
[5] = Cytotoxicity against human multidrug resistant KBV1 cells in absence of vinblastine after 72 hrs by SRB assay; type: functional; settings: KB-V1, 72 h, read-out: ED50 (the source's name)
LNCaP = assay: Cytotoxicity against human LNCAP cells after 72 hrs by SRB assay; type: functional; settings: read-out: ED50 (the source's name)

CN1CCc2cc3c(c4c2[C@H]1Cc1ccccc1-4)OCO3
EC50 (Lu1): 6.6 µg/mL (≈ 23.6 µM)
EC50 [1]: 8.3 µg/mL (≈ 29.7 µM)
EC50 [2]: > 20 µg/mL
EC50 [3]: 5 µg/mL (≈ 17.9 µM)
EC50 (A-431): 4.3 µg/mL (≈ 15.4 µM)
EC50 [4]: 0.6 µg/mL
EC50 (ZR-75-1): > 20 µg/mL
EC50 (SK-MEL-2): > 20 µg/mL
EC50 (HT): 6.4 µg/mL (≈ 22.9 µM)
EC50 (Col2): 5.8 µg/mL (≈ 20.8 µM)
EC50 (P388): > 5 µg/mL
EC50 [5]: > 20 µg/mL
EC50 (LNCaP): 10.7 µg/mL (≈ 38.3 µM)

— ChEMBL document CHEMBL1159240, “(-)-Roemerine, an aporphine alkaloid from Annona senegalensis that reverses the multidrug-resistance phenotype with cultured cells” (1995)
